Measured values published in ChEMBL document CHEMBL1122817, “Synthesis and biological activity of substituted [[3(S)-(acylamino)-2-oxo-1-azetidinyl]oxy]acetic acids. A new class of heteroatom-activated beta-lactam antibiotics” (1985).

Tests used:
Bacillus subtilis [1] = test: Inhibitory activity against Bacillus Subtilis X12 at 10 mg/mL concentration using Agar disk plate assay; assay type: functional
Bacillus subtilis [2] = test: Inhibitory activity against Bacillus Subtilis X12M at 10 mg/mL concentration using Agar disk plate assay; assay type: functional
Escherichia coli [3] = test: Inhibitory activity against Escherichia coli X580 at 10 mg/mL concentration using Agar disk plate assay; assay type: functional
Escherichia coli [4] = test: Inhibitory activity against Escherichia coli X161 at 10 mg/mL concentration using Agar disk plate assay; assay type: functional
Escherichia coli [5] = test: Inhibitory activity against Escherichia coli X161M at 10 mg/mL concentration using Agar disk plate assay; assay type: functional
Proteus vulgaris [6] = test: Inhibitory activity against Proteus vulgaris X45 at 10 mg/mL concentration using Agar disk plate assay; assay type: functional
Micrococcus luteus = test: Inhibitory activity against Sarcina lutea X186 at 10 mg/mL concentration using Agar disk plate assay; assay type: functional
[7] = system: Salmonella enterica subsp. enterica serovar Gallinarum; test: Inhibitory activity against Salmonella gallinarum X142 at 10 mg/mL concentration using Agar disk plate assay; assay type: functional
Staphylococcus aureus [8] = test: Inhibitory activity against Staphylococcus aureus X1 at 10 mg/mL concentration using Agar disk plate assay; assay type: functional
Serratia marcescens [9] = test: Inhibitory activity against Serratia marcescens X99 at 10 mg/mL concentration using Agar disk plate assay; assay type: functional
[10] = system: Acinetobacter calcoaceticus; test: Minimum inhibitory concentration against Acinetobacter calcoaceticus AC12; assay type: functional
[11] = system: Geobacillus stearothermophilus; test: Inhibitory activity against Bacillus Stearothermophilus C451 at 10 mg/mL concentration using Agar disk plate assay; assay type: functional
Citrobacter freundii = test: Minimum inhibitory concentration against Citrobacter freundii CF17; assay type: functional
Escherichia coli [12] = test: Minimum inhibitory concentration against Escherichia coli N10; assay type: functional
Escherichia coli [13] = test: Minimum inhibitory concentration against Escherichia coli TEM; assay type: functional
Klebsiella aerogenes [14] = test: Minimum inhibitory concentration against Enterobacter aerogenes C32; assay type: functional
Enterobacter cloacae [15] = test: Minimum inhibitory concentration against Enterobacter cloacae 265A; assay type: functional
Enterobacter cloacae [16] = test: Minimum inhibitory concentration against Enterobacter cloacae EB5; assay type: functional
Haemophilus influenzae [17] = test: Minimum inhibitory concentration against Haemophilus influenza 76; assay type: functional
Haemophilus influenzae [18] = test: Minimum inhibitory concentration against Haemophilus influenza C.L; assay type: functional
Klebsiella pneumoniae [19] = test: Minimum inhibitory concentration against Klebsiella pneumoniae KAE; assay type: functional
Klebsiella pneumoniae [20] = test: Minimum inhibitory concentration against Klebsiella pneumoniae X26; assay type: functional
Klebsiella pneumoniae [21] = test: Minimum inhibitory concentration against Klebsiella pneumoniae X68; assay type: functional
Morganella morganii = test: Minimum inhibitory concentration against Proteus morganii PR15; assay type: functional
Pseudomonas aeruginosa = test: Minimum inhibitory concentration against Pseudomonas aeruginosa (4 strains); assay type: functional
Ralstonia solanacearum = test: Inhibitory activity against Pseudomonas solanacearum X185 at 10 mg/mL concentration using Agar disk plate assay; assay type: functional
Proteus inconstans = test: Minimum inhibitory concentration against Proteus inconstans PR33; assay type: functional; conditions: Providencia alcalifaciens
Providencia rettgeri = test: Minimum inhibitory concentration against Proteus rettgeri C24; assay type: functional
Salmonella typhi [22] = test: Minimum inhibitory concentration against Salmonella typhi 1335; assay type: functional, Salmonella enterica subsp. enterica serovar Typhi; conditions: Salmonella enterica
Salmonella typhi [23] = test: Minimum inhibitory concentration against Salmonella typhi X514; assay type: functional, Salmonella enterica subsp. enterica serovar Typhi; conditions: Salmonella enterica
Serratia marcescens [24] = test: Minimum inhibitory concentration against Serratia marcescens SE3; assay type: functional
[25] = system: Staphylococcus epidermidis; test: Minimum inhibitory concentration against Staphylococcus epidermidis (2 strains); assay type: functional
Streptococcus pyogenes = test: Minimum inhibitory concentration against Streptococcus pyogenes C203; assay type: functional
Streptococcus pneumoniae = test: Minimum inhibitory concentration against Streptococcus pneumoniae Park I; assay type: functional
Streptococcus = test: Minimum inhibitory concentration against Streptococcus sp. Group D (2 strains); assay type: functional
Staphylococcus aureus [26] = test: Minimum inhibitory concentration against Staphylococcus aureus (4 strains); assay type: functional
Klebsiella aerogenes [27] = test: Minimum inhibitory concentration against Enterobacter aerogenes EB 17; assay type: functional
Escherichia coli [28] = test: Minimum inhibitory concentration against Escherichia coli EC14; assay type: functional
Serratia marcescens [29] = test: Minimum inhibitory concentration against Serratia marcescens X99; assay type: functional
Escherichia coli [30] = test: Inhibitory activity against Escherichia coli X580 at 1 mg/mL concentration using Agar disk plate assay; assay type: functional
Escherichia coli [31] = test: Inhibitory activity against Escherichia coli X161 at 1 mg/mL concentration using Agar disk plate assay; assay type: functional
Escherichia coli [32] = test: Inhibitory activity against Escherichia coli X161M at 1 mg/mL concentration using Agar disk plate assay; assay type: functional
Proteus vulgaris [33] = test: Inhibitory activity against Proteus vulgaris X45 at 1 mg/mL concentration using Agar disk plate assay; assay type: functional
[34] = system: Salmonella enterica subsp. enterica serovar Gallinarum; test: Inhibitory activity against Salmonella gallinarum X142 at 1 mg/mL concentration using Agar disk plate assay; assay type: functional
Serratia marcescens [35] = test: Inhibitory activity against Serratia marcescens X99 at 1 mg/mL concentration using Agar disk plate assay; assay type: functional

## C[C@H]1[C@H](NC(=O)Cc2csc(N)n2)C(=O)N1OCC(=O)[O-].[K+]
Bacillus subtilis [1]
  Zone of inhibition: 12 mm
Bacillus subtilis [2]
  Zone of inhibition: 21 mm
Escherichia coli [3]
  Zone of inhibition: 36 mm
Escherichia coli [4]
  Zone of inhibition: 24 mm
Escherichia coli [5]
  Zone of inhibition: 25 mm
Proteus vulgaris [6]
  Zone of inhibition: 19 mm
Micrococcus luteus
  Zone of inhibition: 15 mm
[7]
  Zone of inhibition: 22 mm
Staphylococcus aureus [8]
  Zone of inhibition: 18 mm
Serratia marcescens [9]
  Zone of inhibition: 23 mm

## CO/N=C(/C(=O)N[C@H]1CN(OCC(=O)[O-])C1=O)c1csc(N)n1.[K+]
[10]
  MIC: > 64 µg/mL
[11]
  Zone of inhibition: 24 mm
Bacillus subtilis [2]
  Zone of inhibition: 13 mm
Citrobacter freundii
  MIC: 16 µg/mL
Escherichia coli [12]
  MIC: 8 µg/mL
Escherichia coli [13]
  MIC: 32 µg/mL
Klebsiella aerogenes [14]
  MIC: 8 µg/mL
Escherichia coli [3]
  Zone of inhibition: 37 mm
Escherichia coli [4]
  Zone of inhibition: 20 mm
Escherichia coli [5]
  Zone of inhibition: 19 mm
Enterobacter cloacae [15]
  MIC: > 64 µg/mL
Enterobacter cloacae [16]
  MIC: 16 µg/mL
Haemophilus influenzae [17]
  MIC: 16 µg/mL
Haemophilus influenzae [18]
  MIC: 16 µg/mL
Klebsiella pneumoniae [19]
  MIC: > 64 µg/mL
Klebsiella pneumoniae [20]
  MIC: 8 µg/mL
Klebsiella pneumoniae [21]
  MIC: 8 µg/mL
Morganella morganii
  MIC: 32 µg/mL
Pseudomonas aeruginosa
  MIC: > 64 µg/mL
Proteus vulgaris [6]
  Zone of inhibition: 21 mm
Ralstonia solanacearum
  Zone of inhibition: 16 mm
Proteus inconstans
  MIC: 2 µg/mL
Providencia rettgeri
  MIC: 2 µg/mL
Salmonella typhi [22]
  MIC: 8 µg/mL
Salmonella typhi [23]
  MIC: 4 µg/mL
Micrococcus luteus
  Zone of inhibition: 21 mm
[7]
  Zone of inhibition: 22 mm
Serratia marcescens [24]
  MIC: 16 µg/mL
Serratia marcescens [9]
  Zone of inhibition: 16 mm
[25]
  MIC: > 64 µg/mL
Streptococcus pyogenes
  MIC: 16 µg/mL
Streptococcus pneumoniae
  MIC: 32 µg/mL
Streptococcus
  MIC: > 64 µg/mL
Staphylococcus aureus [26]
  MIC: > 64 µg/mL
Klebsiella aerogenes [27]
  MIC: 8 µg/mL
Escherichia coli [28]
  MIC: 4 µg/mL
Serratia marcescens [29]
  MIC: 16 µg/mL

## C[C@H]1[C@H](NC(=O)Cc2ccccc2)C(=O)N1OCC(=O)O
Bacillus subtilis [1]
  Zone of inhibition: 11 mm
Bacillus subtilis [2]
  Zone of inhibition: 18 mm
Escherichia coli [3]
  Zone of inhibition: 26 mm
Proteus vulgaris [6]
  Zone of inhibition: 10 mm
Micrococcus luteus
  Zone of inhibition: 23 mm
Staphylococcus aureus [8]
  Zone of inhibition: 13 mm

## CO/N=C(/C(=O)N[C@@H]1C(=O)N(O[C@H](OC(C)=O)C(=O)[O-])[C@H]1C)c1csc(N)n1.[K+]
Escherichia coli [30]
  Zone of inhibition: 38 mm
Escherichia coli [31]
  Zone of inhibition: 26 mm
Escherichia coli [32]
  Zone of inhibition: 28 mm
Proteus vulgaris [33]
  Zone of inhibition: 25 mm
[34]
  Zone of inhibition: 17 mm
Serratia marcescens [35]
  Zone of inhibition: 18 mm
